Assay results from patent US7642364B2, “Benzopyrone compounds, preparation method and use thereof” (Shenyang Research Institute of Chemical Industry, priority 2003, dated 2010).

What was measured:
cucumber downy mildew = test: Fungicidal activity on potted plants, cucumber downy mildew; type: in vivo; conditions: for control(%) fungicidal activity against cucumber downy mildew: 50 ppm; for control against cucumber downy mildew: 200 ppm, spray on potted plant
cucumber grey mold = test: Fungicidal activity on potted plants, cucumber grey mold; type: in vivo; conditions: 200 ppm
culex mosquitoes = test: Insecticidal/acaricidal activity, culex mosquitoes; type: in vivo; conditions: 10 ppm
grape downy mildew = test: Fungicidal activity on potted plants, grape downy mildew; type: in vivo; conditions: 200 ppm
wheat leaf rust = test: Fungicidal activity on potted plants, wheat leaf rust; type: in vivo; conditions: 200 ppm
wheat leaf blotch = test: Fungicidal activity on potted plants, wheat leaf blotch; type: in vivo; conditions: 200 ppm
tomato late blight = type: in vivo; conditions: 200 ppm
Mexican lady beetle = test: Insecticidal/acaricidal activity, Mexican lady beetle; type: in vivo; conditions: 300 ppm
Experimental: Numerous insect larvae were put into containers then were fed with treated corn leaves. Potter's spraying tower was used as the sprayer and spraying volume was 1 mL. The spraying pressure was 13.5 lb/in^2.

two-spotted spider mite = test: Insecticidal/acaricidal activity, two-spotted spider mite; type: in vivo; conditions: 300 ppm
[1] = test system: tomato early stage blight; test: Fungicidal activity on potted plants, tomato early stage blight; type: in vivo; conditions: 200 ppm
wheat powdery mildew = test: Fungicidal activity on potted plants, wheat powdery mildew; type: in vivo; conditions: 200 ppm
[2] = Biological evaluation of compound JP51 after synthesis; conditions: after synthesis and the biological evaluation
Source text: Biological active data of the compound in JP04-182461 have not been disclosed.

In the case of `COC=C(C(=O)OC)c1ccccc1COc1ccc2ccc(=O)oc2c1` [Compound 1], the “control(%) fungicidal activity against cucumber downy mildew” value (“control(%) fungicidal activity” below) (cucumber downy mildew) is reported as 100% and the “control against cucumber downy mildew” value (cucumber downy mildew) is reported as 100%.

With `COC=C(C(=O)OC)c1ccccc1COc1ccc2c(C)cc(=O)oc2c1` [Compound 2] the “control(%) fungicidal activity” value (cucumber downy mildew) was 100%, the “control against cucumber downy mildew” value (cucumber downy mildew) was 100% and the “control against cucumber grey mold” value (cucumber grey mold) was 100%. For the same molecule, the “control of culex mosquitoes” value (culex mosquitoes) was 100%.

For `COC=C(C(=O)OC)c1ccccc1COc1ccc2c(-c3ccccc3)cc(=O)oc2c1C` [Compound 4], the “control against cucumber downy mildew” value (cucumber downy mildew) was 100%.

In the case of `COC=C(C(=O)OC)c1ccccc1COc1ccc2c(C)c(C)c(=O)oc2c1` [Compound 5], the “control(%) fungicidal activity” value (cucumber downy mildew) is reported as 100%, the “control against cucumber downy mildew” value (cucumber downy mildew) is reported as 100% and the “control of culex mosquitoes” value (culex mosquitoes) is reported as 100%.

For `COC=C(C(=O)OC)c1ccccc1COc1ccc2c(C)c(C)c(=O)oc2c1C` [Compound 6], the “control(%) fungicidal activity” value (cucumber downy mildew) was 100%, the “control against cucumber downy mildew” value (cucumber downy mildew) was 100% and the “control against cucumber grey mold” value (cucumber grey mold) was 100%. For the same molecule, the “control against grape downy mildew” value (grape downy mildew) was 100%, the “control against wheat leaf rust” value (wheat leaf rust) was 100% and the “control against wheat leaf blotch” value (wheat leaf blotch) was > 90%. For the same molecule, the “control against tomato late blight” value (tomato late blight) was > 95% and the “control of culex mosquitoes” value (culex mosquitoes) was 100%.

In the case of `COC=C(C(=O)OC)c1ccccc1COc1ccc2c(C(F)(F)F)cc(=O)oc2c1` [Compound 7], the “control against grape downy mildew” value (grape downy mildew) is reported as 100%, the “control of Mexican lady beetle” value (Mexican lady beetle) is reported as 100% and the “control of two-spotted spider mite” value (two-spotted spider mite) is reported as > 50%.

With `COC=C(C(=O)OC)c1ccccc1COc1cc2oc(=O)cc(C)c2cc1C(C)=NOC` [Compound 9] the “control of Mexican lady beetle” value (Mexican lady beetle) was 100%.

For `COC=C(C(=O)OC)c1ccccc1COc1cc2oc(=O)cc(C)c2cc1C(C)=O` [Compound 10], the “control against grape downy mildew” value (grape downy mildew) was 100%, the “control against tomato late blight” value (tomato late blight) was > 75% and the “control of Mexican lady beetle” value (Mexican lady beetle) was 100%.

For `COC=C(C(=O)OC)c1ccccc1COc1ccc2c(C)cc(=O)oc2c1C(C)=O` [Compound 11], the “control against tomato early stage blight” value [1] was > 75%.

In the case of `COC=C(C(=O)OC)c1ccccc1COc1ccc2c(C)c(Cl)c(=O)oc2c1` [Compound 12], the “control(%) fungicidal activity” value (cucumber downy mildew) is reported as 100% and the “control against cucumber downy mildew” value (cucumber downy mildew) is reported as 100%.

For `CCc1c(C)c2ccc(OCc3ccccc3C(=COC)C(=O)OC)cc2oc1=O` [Compound 18], the “control against cucumber downy mildew” value (cucumber downy mildew) was 100% and the “control against cucumber grey mold” value (cucumber grey mold) was 100%.

For `COC=C(C(=O)OC)c1ccccc1COc1ccc2c(COC)cc(=O)oc2c1` [Compound 19], the “control against cucumber downy mildew” value (cucumber downy mildew) was 100%.

For `COC=C(C(=O)OC)c1ccccc1COc1ccc2c(C)c(Cl)c(=O)oc2c1C` [Compound 25], the “control against cucumber downy mildew” value (cucumber downy mildew) was 100%.

In the case of `COC=C(C(=O)OC)c1ccccc1COc1ccc2c(C(C)C)cc(=O)oc2c1` [Compound 26], the “control(%) fungicidal activity” value (cucumber downy mildew) is reported as 100% and the “control against cucumber downy mildew” value (cucumber downy mildew) is reported as 100%.

In the case of `CCc1cc(=O)oc2cc(OCc3ccccc3C(=COC)C(=O)OC)ccc12` [Compound 33], the “control against cucumber downy mildew” value (cucumber downy mildew) is reported as 100%.

In the case of `CCCc1cc(=O)oc2cc(OCc3ccccc3C(=COC)C(=O)OC)ccc12` [Compound 34], the “control against cucumber downy mildew” value (cucumber downy mildew) is reported as 100%.

With `CCCc1cc(=O)oc2c(C)c(OCc3ccccc3C(=COC)C(=O)OC)ccc12` [Compound 35] the “control against cucumber downy mildew” value (cucumber downy mildew) was 100%.

With `CCCc1c(C)c(=O)oc2cc(OCc3ccccc3C(=COC)C(=O)OC)ccc12` [Compound 37] the “control(%) fungicidal activity” value (cucumber downy mildew) was 100% and the “control against cucumber downy mildew” value (cucumber downy mildew) was 100%.

For `COC=C(C(=O)OC)c1ccccc1COc1ccc2c(C)c(F)c(=O)oc2c1` [Compound 50], the “control against cucumber downy mildew” value (cucumber downy mildew) was 100% and the “control against cucumber grey mold” value (cucumber grey mold) was 100%.

In the case of `COC=C(C(=O)OC)c1ccccc1COc1ccc2c(-c3ccccc3)cc(=O)oc2c1` [Compound 52], the “control(%) fungicidal activity” value (cucumber downy mildew) is reported as 100% and the “control against cucumber downy mildew” value (cucumber downy mildew) is reported as 100%.

With `COC=C(C(=O)OC)c1ccccc1COc1ccc2c(-c3ccc(OC)c(OC)c3)cc(=O)oc2c1` [Compound 58] the “control against cucumber downy mildew” value (cucumber downy mildew) was 100% and the “control against cucumber grey mold” value (cucumber grey mold) was 100%.

With `COC=C(C(=O)OC)c1ccccc1COc1ccc2c(C)c(Cc3ccccc3)c(=O)oc2c1C` [Compound 69] the “control against cucumber downy mildew” value (cucumber downy mildew) was 100%.

With `CON=C(C(=O)OC)c1ccccc1COc1ccc2c(C)c(Cl)c(=O)oc2c1` [Compound 100] the “control against cucumber grey mold” value (cucumber grey mold) was 100%.

With `CON=C(C(=O)OC)c1ccccc1COc1ccc2c(C)c(Cl)c(=O)oc2c1C` [Compound 109] the “control against cucumber downy mildew” value (cucumber downy mildew) was 100%.

For `CON=C(C(=O)OC)c1ccccc1COc1cc2oc(=O)cc(-c3cccc(C(F)(F)F)c3)c2cc1C(C)=O` [Compound 141], the “control(%) fungicidal activity” value (cucumber downy mildew) was 100%.

For `CCCCc1c(C)c2ccc(OCc3ccccc3C(=COC)C(=O)OC)cc2oc1=O` [Compound 402], the “control(%) fungicidal activity” value (cucumber downy mildew) was 100%, the “control against cucumber downy mildew” value (cucumber downy mildew) was 100% and the “control against cucumber grey mold” value (cucumber grey mold) was 100%. For the same molecule, the “control against wheat powdery mildew” value (wheat powdery mildew) was 100%.

With `CCCCCCc1c(C)c2ccc(OCc3ccccc3C(=COC)C(=O)OC)cc2oc1=O` [Compound 405] the “control(%) fungicidal activity” value (cucumber downy mildew) was 100% and the “control against cucumber downy mildew” value (cucumber downy mildew) was 100%.

In the case of `CCCc1c(CCC)c2ccc(OCc3ccccc3C(=COC)C(=O)OC)cc2oc1=O` [Compound 409], the “control(%) fungicidal activity” value (cucumber downy mildew) is reported as 100% and the “control against cucumber downy mildew” value (cucumber downy mildew) is reported as 100%.

With `CCCc1c(Cl)c(=O)oc2cc(OCc3ccccc3C(=NOC)C(=O)OC)ccc12` [Compound 410] the “control against cucumber downy mildew” value (cucumber downy mildew) was 100%.

For `CCCc1c(C)c2ccc(OCc3ccccc3C(=NOC)C(=O)OC)cc2oc1=O` [Compound 412], the “control against wheat powdery mildew” value (wheat powdery mildew) was 100%.

In the case of `CCCCc1c(C)c2ccc(OCc3ccccc3C(=NOC)C(=O)OC)cc2oc1=O` [Compound 413], the “control against cucumber downy mildew” value (cucumber downy mildew) is reported as 100% and the “control against wheat powdery mildew” value (wheat powdery mildew) is reported as 100%.

In the case of `CCCCCCc1c(C)c2ccc(OCc3ccccc3C(=NOC)C(=O)OC)cc2oc1=O` [Compound 414], the “control against cucumber downy mildew” value (cucumber downy mildew) is reported as 100%.

With `CNC(=O)/C(=N/OC)c1ccccc1COc1ccc2ccc(=O)oc2c1` [JP51, reference compound] the “control(%) fungicidal activity” value (cucumber downy mildew) was 20% and the “biological activity (general statement)” value [2] was “low biological active”.
